Laboratory results from patent US20080171097A1, “PRODUCT LIQUORICE ROOT AND OAK BARK IN COMBINATION WITH DEXAPANTHENOL” (priority 2007, published 2008).

Test system: herpes disease in the lip region (herpes blisters)
Assay: Topical application of the composition in the oral and/or pharyngeal cavity of voluntary test persons (herpes blisters, other inflammations)
Assay type: in vivo, human (voluntary test persons)
Details: a test subject
Source text: This composition was applied in the oral and/or pharyngeal cavity of voluntary test persons. When there were signs that herpes blisters were about to occur or when herpes blisters had already occurred, the composition was applied several times daily to the affected skin sites using a cotton bud. In the case of other inflammations in the oral and/or pharyngeal cavity the solution was also either applied locally or a dilution of this solution was gurgled.

## Nc1nc2c(ncn2COCCO)c(=O)[nH]1 [Aciclovir]
  relapse / reoccurrence after treatment and healing of acute herpes blisters: relapses very often occurred again within the following 14 days
